Reference: patent US9217150B2, “NRPS-PKS gene cluster and its manipulation and utility” (SINTEF TTO AS, priority 2008, dated 2015)

Test system: strain DSM 21069 (isolate MP28-13)
Test: Antibiotic resistance characteristics of strain DSM 21069
Format: cell-based, Streptomyces

Compound: C=C(NC(=O)C(=C)NC(=O)c1csc(C2=N[C@@H]3c4csc(n4)[C@H]4NC(=O)c5csc(n5)[C@H]([C@](C)(O)[C@@H](C)O)NC(=O)[C@H]5CSC(=N5)/C(=C/C)NC(=O)[C@H]([C@@H](C)O)NC(=O)c5csc(n5)[C@]3(CC2)NC(=O)[C@H](C)NC(=O)C(=C)NC(=O)[C@H](C)NC(=O)[C@H]([C@@H](C)CC)N[C@@H]2C=Cc3c([C@H](C)O)cc(nc3[C@H]2O)C(=O)O[C@@H]4C)n1)C(N)=O [Thiostrepton]
- Antibiotic resistance (antibiotic at 5 μg/ml): sensitive
- Antibiotic resistance (antibiotic at 10 μg/ml): sensitive
- Antibiotic resistance (antibiotic at 20 μg/ml): sensitive
- Antibiotic resistance (antibiotic at 50 μg/ml): sensitive

Compound: CO[C@H]1/C=C/O[C@@]2(C)Oc3c(C)c(O)c4c(O)c(cc(O)c4c3C2=O)NC(=O)/C(C)=C\C=C\[C@H](C)[C@H](O)[C@@H](C)[C@@H](O)[C@@H](C)[C@H](OC(C)=O)[C@@H]1C [Rifamycin]
- Antibiotic resistance (antibiotic at 5 μg/ml): resistant
- Antibiotic resistance (antibiotic at 10 μg/ml): resistant
- Antibiotic resistance (antibiotic at 20 μg/ml): resistant
- Antibiotic resistance (antibiotic at 50 μg/ml): sensitive

Compound: [H]/N=C(/N)N[C@H]1[C@H](O)[C@@H](O)[C@H](O[C@@H]2O[C@@H](C)[C@](O)(C=O)[C@H]2O[C@@H]2O[C@@H](CO)[C@H](O)[C@@H](O)[C@@H]2NC)[C@@H](N/C(N)=N\[H])[C@@H]1O [Streptomycin]
- Antibiotic resistance (antibiotic at 5 μg/ml): resistant
- Antibiotic resistance (antibiotic at 10 μg/ml): resistant
- Antibiotic resistance (antibiotic at 20 μg/ml): resistant
- Antibiotic resistance (antibiotic at 50 μg/ml): resistant

Compound: Neomycin
- Antibiotic resistance (antibiotic at 5 μg/ml): sensitive
- Antibiotic resistance (antibiotic at 10 μg/ml): sensitive
- Antibiotic resistance (antibiotic at 20 μg/ml): sensitive
- Antibiotic resistance (antibiotic at 50 μg/ml): sensitive

Compound: CN[C@@H]1[C@@H](O[C@H]2O[C@H](CO)[C@@H](N)[C@H](O)[C@H]2O)OC2C[C@@H](N)[C@@H](O[C@H]3[C@H](O)[C@@H](O)[C@H](N)C[C@@H]3N)OC2[C@@H]1O (some centres unmarked) [Apramycin]
- Antibiotic resistance (antibiotic at 5 μg/ml): sensitive
- Antibiotic resistance (antibiotic at 10 μg/ml): sensitive
- Antibiotic resistance (antibiotic at 20 μg/ml): sensitive
- Antibiotic resistance (antibiotic at 50 μg/ml): sensitive
